Experimental data taken from US3959519A, “Fortification of food materials with a methionine source” (priority 1975, dated 1976).
Where a SMILES comes first, the peptide text is derived from it.

Tests used:
[1] = Odor development on storage in sealed containers; assay type: physicochemical; conditions: recrystallized sample, sealed container, twenty-nine days at 45°C.
Description: Samples of virtually odorless, recrystallized D,L-methionine, glycyl-D,L-methionine, and D,L-alanyl-D,L-methionine were stored in sealed containers for twenty-nine days at 45°C.

[2] = Chick feeding test, body weight and feed efficiency on fortified corn-soy rations; assay type: in vivo, cockerels (Barred Rock males x Rhode Island females); conditions: for difference between responses from methionine and glycylmethionine supplemented rations: 0.15% D,L-methionine vs 0.2% glycyl-D,L-methionine; for feed efficiencies / growth: corn-soy poultry ration with 0.15% D,L-methionine or 0.2% glycyl-D,L-methionine
Excerpt: For this test, cockerels are produced from a cross of Barred Rock males and Rhode Island females. All the 150 cockerels are selected on the basis that their weight differs no more than 2 grams. The birds are maintained on an all vegetable protein corn-soy basal diet for a 2-week preliminary period. At the end of this period, a median group of 90 birds is selected on the basis of weight, and they are then evenly distributed into three experimental groups, which in turn are placed on the experimental rations (Table 2). The level of glycyl-D,L-methionine in Diet No. 3 is equivalent to the level of D,L-methionine in Diet No. 2, on the basis of L-methioninecontent. The birds are weighed weekly and their feed consumption also determined weekly, to permit weekly feed efficiency evaluations. […] | -- -- 92 g.

[3] = tested on: Leuconostoc mesenteroides P-60; experiment: L-methionine bioavailability from dipeptides by turbidimetric growth response of a methionine-requiring bacterial mutant; assay type: cell-based; conditions: for utilization as a source of L-methionine by L. mesenteroides P-60: 17 hours of incubation at 37°C.; for L-Methionine Response / L-Methionine, % of Theoretical: 17 hours, 37°C.
Excerpt: The utilization of methionine-containing peptide can be shown, for example, in animal feeding tests. However, the formation of free methionine can also be shown directly in tests with a microorganism requiring methionine for its growth and reproduction. The following Example describes a quantitative test involving a known bacterial mutant.
Leuconostoc mesenteroides P-60 was the bacterial mutant used to assess the biological availability of L-methionine in glycyl-D,L-methionine, glycyl-L-methionine and L-methionylglycine. This mutant is unable to synthesize methionine and therefore requires an external source of this amino acid.
Under aseptic conditions, a substrate devoid of L-methionine was supplemented with graded amounts of glycyl-D,L-methionine, glycyl-L-methionine, and L-methionylglycine and then inoculated with a drop of a washed L. mesenteroides P-60 culture. After 17 hours of incubation at 37°C., the growth of L. mesenteroides P-60 in each of the culture tubes was measured turbidimetrically, at a wavelength of […]. Based on the growth response of this mutant to a similar treatment with a standard L-methionine solution of known concentration, the L-methionine response, if any, to the candidate peptides was evaluated.

[4] = level tested 6 μg./tube, calculated L-methionine equivalence 4.0 μg.
[5] = level tested 12 μg./tube, calculated L-methionine equivalence 4.0 μg. (glycyl-D,L-methionine) or 8.0 μg. (L-dipeptides)
[6] = level tested 24 μg./tube, calculated L-methionine equivalence 8.0 μg.

Row | odor after storage [1] | SMILES | difference between responses from methionine and glycylmethionine supplemented rations [2] | feed efficiencies [2] | growth [2] | utilization as a source of L-methionine by L. mesenteroides P-60 [3] | L-Methionine Response [3, 4] | L-Methionine, % of Theoretical [3, 4] | L-Methionine Response [3, 5] | L-Methionine, % of Theoretical [3, 5] | L-Methionine Response [3, 6] | L-Methionine, % of Theoretical [3, 6]
1 | developed a typical sulfurous odor | CSCCC(N)C(=O)O (racemic) [D,L-Methionine, D,L-methionine, reference compound] | No significant difference | improved feed efficiencies | significant growth increases | – | – | – | – | – | – | –
2 | – | CSCC[C@H](N)C(=O)NCC(=O)O [L-Methionylglycine, L-methionylglycine] (H-Met-Gly-OH) | – | – | – | can utilize | 4.0 µg | 100% | 7.5 µg | 94% | – | –
3 | – | CSCC[C@H](NC(=O)CN)C(=O)O [Glycyl-L-Methionine, glycyl-L-methionine] | – | – | – | can utilize | 4.5 µg | 112% | 7.8 µg | 97% | – | –
4 | developed a typical sulfurous odor | CSCCC(NC(=O)C(C)N)C(=O)O (mixture of isomers) [D,L-alanyl-D,L-methionine] | – | – | – | – | – | – | – | – | – | –

Row | SMILES | odor after storage [1] | difference between responses from methionine and glycylmethionine supplemented rations [2] | feed efficiencies [2] | growth [2] | utilization as a source of L-methionine by L. mesenteroides P-60 [3] | L-Methionine Response [3, 4] | L-Methionine, % of Theoretical [3, 4] | L-Methionine Response [3, 5] | L-Methionine, % of Theoretical [3, 5] | L-Methionine Response [3, 6] | L-Methionine, % of Theoretical [3, 6]
5 | CSCCC(NC(=O)CN)C(=O)O (racemic) [Glycyl-D,L-Methionine, glycyl-D,L-methionine] | still virtually odor-free | No significant difference | improved feed efficiencies | significant growth increases | can utilize | – | – | 3.5 µg | 88% | 7.5 µg | 94%
